Measured values: patent US6143722A, “Heptapeptide oxytocin analogues” (Ferring, B.V., priority 1996, dated 2000)
Where two headings read alike, the source gives them in different places. *1 amine or outer side, *2 acyl side, *3 side chain or, on linkers, in order; H or OH if unused. Where a SMILES comes first, the peptide text is derived from it. Bridges are numbered along the chain shown (N, C = ends). [ ]: non-standard residue; d: D form. ξ: configuration not given here. d2Nal = N[C@H](Cc1ccc2ccccc2c1)C(=O)O; aIle = CC[C@@H](C)[C@H](N)C(=O)O; hCys = N[C@@H](CCS)C(=O)O; ξNMeOrn = CNC(CCCN)C(=O)O; X1 = O=C(CC[*:2])[*:1]

Key:
[1] = target: T1, Recombinant human oxytocin receptors (Homo sapiens, UniProt P30559); test: Oxytocin receptor binding assay ([125I]-oxytocin, membrane fraction); conditions: recombinant human oxytocin receptors expressed in CHO or HEK293 cells, mean ± SEM
T1 construct: expressed in transfected cells; host or cells: CHO or HEK293 cells (membrane fraction)
T1 sequence (P30559 1-389): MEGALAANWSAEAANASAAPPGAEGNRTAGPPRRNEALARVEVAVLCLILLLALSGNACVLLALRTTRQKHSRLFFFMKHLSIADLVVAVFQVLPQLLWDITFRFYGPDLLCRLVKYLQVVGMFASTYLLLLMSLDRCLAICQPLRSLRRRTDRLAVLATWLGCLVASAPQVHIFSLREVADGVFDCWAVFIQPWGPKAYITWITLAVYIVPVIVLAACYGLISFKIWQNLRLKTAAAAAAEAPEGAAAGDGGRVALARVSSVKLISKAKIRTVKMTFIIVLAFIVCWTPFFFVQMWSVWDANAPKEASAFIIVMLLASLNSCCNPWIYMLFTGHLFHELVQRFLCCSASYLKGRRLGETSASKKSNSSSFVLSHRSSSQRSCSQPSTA
Description: i) Oxytocin receptor binding assay
Recombinant human oxytocin receptors were expressed in either CHO or HEK293 cells using standard molecular biological techniques. A membrane fraction was prepared and incubated in the presence of [^125 I]-oxytocin and varying concentrations of heptapeptide analogue. Membranes were then isolated by filtration and counted for radioactivity to determine oxytocin binding. An inhibition constant Ki was determined for the analogue.

[2] = pH 4.5
Description: (§1) Solutions of the heptapeptide analogues of the present invention were prepared with compositions representative of aqueous formulations. The solutions were stored for several weeks at 50° C. and aliquots were withdrawn periodically for analysis by HPLC. Reference peptides were studied in parallel. Degradation was determined as the loss of peptide (% by weight per week), independent of the nature of the decomposition products.

[3] = test system: Uterus muscle tissue from women in late pregnancy; test: Antagonist effect in vitro in a human uterus model (oxytocin-induced contraction of uterus muscle strips); assay type: cell-based; conditions: concentration of antagonist reducing the oxytocin response to 50% of control; isolated human uterus strips
Description: ii) Antagonist effect in vitro in a human uterus model
Uterus muscle tissue from women in late pregnancy undergoing Caesarean section was cut into strips which were mounted in a tissue bath filled with Krebs-Ringer buffer and oxygenated with carbogen (95% O2 +5% CO2) gas. Changes in isometric muscle tension detected with a tension transducer were recorded on a Grass polygraph.
The concentration-effect curve of oxytocin was recorded. The effect measured in this case corresponds to the net value of the integrated contraction curve during the 10 minute period following agonist (i.e. oxytocin) administration. A concentration of oxytocin giving at least half-maximal response was selected. This concentration of agonist was administered to the tissue in the presence of different concentrations of antagonist heptapeptide analogue and the response was recorded. The concentration of antagonist required to reduce the response to 50% of its control value was determined by regression analysis and is given here as an IC50 value. [IC50 value=concentration of antagonist required to reduce the effect of a given agonist dose by 50%].

[4] = test system: myometrium; assay type: in vivo, Sprague Dawley rats; conditions: for ID50, rat model: in vivo
Description: Sprague Dawley rats (ca. 250 g) in natural estrus were anaesthetised with Inactin (0.5 mg/100 g body weight, i.p.). The activity of the myometrium was measured with the aid of a catheter fixed in the uterine cavity and filled with modified Lockes solution. The catheter was connected to a Statham P23D force transducer and the contractions were recorded on a Grass polygraph (model 7D).
The dose-response curve for oxytocin (2×10^-4 -5×10^-3 μmol/kg) was recorded. In this case the response was quantified by integration of the curve during the 15 minutes following agonist injection. A dose of oxytocin giving an effect corresponding to an intralumenar contraction pressure of 10-30 mm Hg and within the linear section of the curve was selected. This dose of oxytocin was administered to the animal in conjunction with at least two different doses of antagonist and the effect was recorded. The dose of antagonist which reduces the effect of the agonist to 50% of tis control value was determined by interpolation and is given here as an ID50 value. [ID50 value=dose of antagonist required to reduce the effect of a given agonist dose by 50%].
The duration of action of the antagonists was also determined in this model. An oxytocin dose was selected (2×10^-4 -5×10^-3μmol/kg) giving an effect corresponding to half the maximum effect (this dose is the ED50). The effect determined here is the same as for the ID50 determination defined above. An antagonist dose was selected (8×10^-4 -4×10^-3 μmol/kg) so as to give at least 50% inhibition of the response to the agonist. At the beginning of the experiment, single doses of the agonist and antagonist were co-administered. At 20 minute intervals thereafter, doses of the agonist alone were administered and the response was measured. […] [t75 value=time period required for the effectiveness of a single dose to decline by 75%].

[5] = Evaluation of stability in aqueous solution (HPLC); conditions: Isotonic citrate/phosphate buffer, pH 4.5; stored at 50° C.; loss of peptide by HPLC
Description: as §1

Row | Ki [1] | Degradation at 50° C. (wt %/week) [2] | Degradation at 50° C. (wt %/week) [5] | Compound | other results
1 | 0.8 ± 0.3 nM | 0.7 wt %/week |  | CC[C@H](C)[C@@H]1NC(=O)[C@@H](Cc2c[nH]c3ccccc23)NC(=O)CCSCC[C@@H](C(=O)N(C)[C@H](CO)CCCN)NC(=O)[C@H](CC(N)=O)NC(=O)[C@H](C(C)C)NC1=O [III] | 
2 | 3.2 ± 0.75 nM |  |  | CC[C@H](C)[C@@H]1NC(=O)[C@@H](Cc2c[nH]c3ccccc23)NC(=O)CCSCC[C@@H](C(=O)N(C)[C@H](CO)CCCN)NC(=O)[C@H](CC(N)=O)NC(=O)[C@H](CC(C)C)NC1=O [II] | 
3 | 7 ± 1.85 nM |  |  | CC[C@H](C)[C@@H]1NC(=O)[C@@H](Cc2c[nH]c3ccccc23)NC(=O)CCSCC[C@@H](C(=O)N(C)[C@H](CO)CCCN)NC(=O)[C@H](CC(N)=O)NC(=O)[C@H](CC2CCCCC2)NC1=O [IV] | 
4 | 0.25 ± 0.16 nM | 0.4 wt %/week |  | CC[C@@H](C)[C@@H]1NC(=O)[C@H]([C@@H](C)CC)NC(=O)[C@@H](Cc2c[nH]c3ccccc23)NC(=O)CCSCC[C@@H](C(=O)N(C)[C@H](CO)CCCN)NC(=O)[C@H](CC(N)=O)NC1=O [Peptide I] | IC50 [3]: 5 ± 1 nM; t75, rat model ([4]; duration of action: time for the effectiveness of a single dose to decline by 75%, antagonist dose 8×10^-4 -4×10^-3 μmol/kg): 169 ± 2 min; ID50, rat model [4]: 2.9 ± 0.3 nmol/kg
5 | 2.4 ± 0.85 nM |  |  | CCC(CC)[C@@H]1NC(=O)[C@H]([C@@H](C)CC)NC(=O)[C@@H](Cc2c[nH]c3ccccc23)NC(=O)CCSCC[C@@H](C(=O)N(C)[C@H](CO)CCCN)NC(=O)[C@H](CC(N)=O)NC1=O [VII] | 
6 | 0.1 nM | 1.2 wt %/week |  | CC[C@@H](C)[C@@H]1NC(=O)[C@H]([C@@H](C)CC)NC(=O)[C@@H](Cc2ccc3ccccc3c2)NC(=O)CCSCC[C@@H](C(=O)N(C)[C@H](CO)CCCN)NC(=O)[C@H](CC(N)=O)NC1=O [VI] | 
7 | 1.4 ± 0.15 nM |  |  | CC[C@H](C)[C@@H]1NC(=O)[C@H]([C@@H](C)CC)NC(=O)[C@@H](Cc2c[nH]c3ccccc23)NC(=O)CCSCC[C@@H](C(=O)N(C)[C@H](CO)CCCN)NC(=O)[C@H](CC(N)=O)NC1=O [V] | 
8 |  |  | 2.9 wt %/week | CC[C@@H](C)[C@@H]1NC(=O)[C@H]([C@@H](C)CC)NC(=O)[C@@H](Cc2c[nH]c3ccccc23)NC(=O)CCSCC[C@@H](C(=O)N(C)C(CCCN)C(N)=O)NC(=O)[C@H](CC(N)=O)NC1=O (some centres unmarked) [r-IX, reference compound] ([dW]I[aIle]N[hCys][ξNMeOrn]-NH2; linker N-5 via X1) | ID50, rat model [4]: 2.9 ± 0.3 nmol/kg
9 |  |  | 4.0 wt %/week | CC[C@@H](C)[C@@H]1NC(=O)[C@H]([C@@H](C)CC)NC(=O)[C@@H](Cc2ccc3ccccc3c2)NC(=O)CCSCC[C@@H](C(=O)N(C)C(CCCN)C(N)=O)NC(=O)[C@H](CC(N)=O)NC1=O (some centres unmarked) [r-XI] ([d2Nal]I[aIle]N[hCys][ξNMeOrn]-NH2; linker N-5 via X1) | 
10 |  |  | 4.3 wt %/week | CC[C@H](C)[C@@H]1NC(=O)[C@@H](Cc2c[nH]c3ccccc23)NC(=O)CCSCC[C@@H](C(=O)N(C)C(CCCN)C(N)=O)NC(=O)[C@H](CC(N)=O)NC(=O)[C@H](C(C)C)NC1=O (some centres unmarked) [r-X] ([dW]IVN[hCys][ξNMeOrn]-NH2; linker N-5 via X1) | 
